Laboratory results from patent US9801901B2, “Alginate oligomers for use in overcoming multidrug resistance in bacteria” (priority 2009, dated 2017).
≈ marks a conversion by molar mass, not a printed value. Where two headings read alike, the source gives them in different places. Marks after values point to notes of the source that are not given here.

Assays:
[1] = test system: V11 5702 (Wales) E. coli; experiment: MIC assay, CAMHB with alginate oligomer, no visible growth; assay type: cell-based; settings: Table 5, V11 MDR E.coli
[2] = test system: Pseudomonas aeruginosa ATCC 39324, mucoid type strain (R79); experiment: as above; assay type: cell-based; settings: Pseudomonas aeruginosa, ATCC39324, Table 1, R79, read-out: MIC
[3] = test system: Pseudomonas aeruginosa (R22, PSA, V1); experiment: MIC-assay, Mueller-Hinton broth with G-block alginate, 384-well, OD600
[4] = test system: V19 non MDR Acinetobacter baumannii; experiment: MIC assay, CAMHB with M-block alginate oligomer, no visible growth; assay type: cell-based; settings: Table 7, V19 non MDR Acin. baum
Excerpt: The study described in Example 1 was repeated with the following strains of Acinetobacter baumannii, antibiotics and M-block alginate oligomer in place of OligoG CF-5/20 as detailed in Table 7. The M-block oligomer is 100% M with a DPn of 15 to 18,

[5] = test system: MDR Pseudomonas strains; experiment: MIC assay of Example 1, summary over the MDR Pseudomonas strains; assay type: cell-based, Pseudomonas aeruginosa
[6] = test system: Acinetobacter baumannii (Egypt, V9); experiment: MIC-assay, Mueller-Hinton broth with G-block alginate, 384-well, OD600
[7] = test system: V23 1322 Burkholderia cepacia; experiment: MIC assay, CAMHB with alginate oligomer, no visible growth; assay type: cell-based
[8] = test system: Staphylococcus aureus (MRSA) U50; experiment: MIC-assay, Mueller-Hinton broth with G-block alginate, 384-well, OD600 (Table 12); assay type: cell-based; settings: MRSA 1040s, U50 MDR
Excerpt: Minimum inhibitory concentration (MICs) of different antibiotics for strains of Streptococcus oralis and Staphylococcus aureus (MRSA) displaying MDR phenotypes in the presence of varying concentrations of OligoCF-5/20 (0-10%). (MIC values are expressed in μg ml^−1).

[9] = test system: Acinetobacter lwoffii (Egypt, V10); experiment: MIC-assay, Mueller-Hinton broth with G-block alginate, 384-well, OD600
[10] = test system: Klebsiella pneumoniae KP05 506 from India (V3); experiment: MIC assay, CAMHB with alginate oligomer, no visible growth; assay type: cell-based; settings: for MIC: Klebsiella pneumoniae, Table 1, V3 KP05 506, read-out: MIC
[11] = test system: Burkholderia cepacia (LMG18941, ATCC-BAA-246); experiment: MIC-assay, Mueller-Hinton broth with G-block alginate, 384-well, OD600
[12] = Table 9, G-block (OligoCF-5/20) 0%
[13] = Table 9, G-block (OligoCF-5/20) 2%
[14] = Table 9, G-block (OligoCF-5/20) 6%
[15] = Table 9, G-block (OligoCF-5/20) 10%

C[C@H]1[C@H](NC(=O)/C(=N\OC(C)(C)C(=O)O)c2csc(N)n2)C(=O)N1S(=O)(=O)O [Aztreonam]
MIC ([1]; Escherichia coli, OligoCF-5/20 0G, read-out: MIC): 256 µg/mL (≈ 588 µM)
MIC ([1]; OligoCF-5/20 +2% G): 256 µg/mL (≈ 588 µM)
MIC ([1]; OligoCF-5/20 +6% G): 256 µg/mL (≈ 588 µM)
MIC ([1]; OligoCF-5/20 +10% G): 256 µg/mL (≈ 588 µM)
MIC ([2]; OligoCF-5/20 0G): 2 µg/mL (≈ 4.59 µM)
MIC ([2]; OligoCF-5/20 +2% G): 2 µg/mL (≈ 4.59 µM)
MIC ([2]; OligoCF-5/20 +6% G): < 1 µg/mL
MIC ([2]; OligoCF-5/20 +10% G): < 1 µg/mL
MIC ([3]; Table 8, G-block (OligoCF-5/20) 6%): 0.0625 µg/mL (≈ 0.144 µM)
MIC ([3]; Table 8, G-block (OligoCF-5/20) 10%): 0.0312 µg/mL (≈ 0.0718 µM)
MIC ([4]; M-block oligomer 0M): 64 µg/mL (≈ 147 µM)
MIC ([4]; M-block oligomer +2% M): 32 µg/mL (≈ 73.5 µM)
MIC ([4]; M-block oligomer +6% M): 8 µg/mL (≈ 18.4 µM)
MIC ([4]; M-block oligomer +10% M): 8 µg/mL (≈ 18.4 µM)
effectiveness when used in combination with the alginate oligomers [5]: more effective
MIC [6, 12]: > 16 µg/mL
MIC [6, 13]: > 16 µg/mL
MIC [6, 14]: > 16 µg/mL
MIC [6, 15]: > 16 µg/mL
MIC ([7]; Burkholderia cepacia, Table 5, V23 MDR Burk cep, OligoCF-5/20 0G, read-out: MIC): > 512 µg/mL
MIC ([7]; Burkholderia cepacia, Table 6, V23, Experiment 1 (18-03-10), OligoCF-5/20 0G, read-out: MIC): > 4100 µg/mL
MIC ([7]; Burkholderia cepacia, Table 6, V23, Experiment 2 (18-03-10), OligoCF-5/20 0G, read-out: MIC): > 4100 µg/mL
MIC ([7]; Burkholderia cepacia, Table 6, V23, Experiment 3 (19-03-10), OligoCF-5/20 0G, read-out: MIC): > 4100 µg/mL
MIC ([7]; Table 5, V23 MDR Burk cep, OligoCF-5/20 +2% G): >512 µg/mL
MIC ([7]; Table 5, V23 MDR Burk cep, OligoCF-5/20 +6% G): 512^† μg/ml
MIC ([7]; Table 5, V23 MDR Burk cep, OligoCF-5/20 +10% G): 128^† μg/ml
MIC ([7]; Table 6, V23, Experiment 1 (18-03-10), OligoCF-5/20 +2% G): >4096 µg/mL
MIC ([7]; Table 6, V23, Experiment 1 (18-03-10), OligoCF-5/20 +6% G): 1024^† μg/ml
MIC ([7]; Table 6, V23, Experiment 1 (18-03-10), OligoCF-5/20 +10% G): 256^† μg/ml
MIC ([7]; Table 6, V23, Experiment 2 (18-03-10), OligoCF-5/20 +2% G): >4096 µg/mL
MIC ([7]; Table 6, V23, Experiment 2 (18-03-10), OligoCF-5/20 +6% G): 1024^† μg/ml
MIC ([7]; Table 6, V23, Experiment 2 (18-03-10), OligoCF-5/20 +10% G): 512^† μg/ml
MIC ([7]; Table 6, V23, Experiment 3 (19-03-10), OligoCF-5/20 +2% G): >4096 µg/mL
MIC ([7]; Table 6, V23, Experiment 3 (19-03-10), OligoCF-5/20 +6% G): 1024^† μg/ml
MIC ([7]; Table 6, V23, Experiment 3 (19-03-10), OligoCF-5/20 +10% G): 128^† μg/ml
MIC ([8]; G-block (OligoCF-5/20) 0%, read-out: MIC): 1020 µg/mL (≈ 2350 µM)
MIC ([8]; G-block (OligoCF-5/20) 2%, read-out: MIC): 1020 µg/mL (≈ 2350 µM)
MIC ([8]; G-block (OligoCF-5/20) 6%): 512 µg/mL (≈ 1180 µM)
MIC ([8]; G-block (OligoCF-5/20) 10%): 512 µg/mL (≈ 1180 µM)
MIC [9, 12]: 8 µg/mL (≈ 18.4 µM)
MIC [9, 13]: 4 µg/mL (≈ 9.19 µM)
MIC [9, 14]: 2 µg/mL (≈ 4.59 µM)
MIC [9, 15]: 1 µg/mL (≈ 2.3 µM)
effectiveness in conjunction with alginate oligomers ([10]; Example 1, KP05 506): more effective
MIC ([10]; OligoCF-5/20 0G): 2050 µg/mL (≈ 4700 µM)
MIC ([10]; OligoCF-5/20 +2% G): 2050 µg/mL (≈ 4700 µM)
MIC ([10]; OligoCF-5/20 +6% G): 512 µg/mL (≈ 1180 µM)
MIC ([10]; OligoCF-5/20 +10% G): 256 µg/mL (≈ 588 µM)
MIC ([11]; ATCCBAA246|LMG18941, Table 8, G-block (OligoCF-5/20) 0%): > 16 µg/mL
MIC ([11]; ATCCBAA246|LMG18941, Table 8, G-block (OligoCF-5/20) 2%): > 16 µg/mL
MIC ([11]; ATCCBAA246|LMG18941, Table 8, G-block (OligoCF-5/20) 6%): > 16 µg/mL
MIC ([11]; ATCCBAA246|LMG18941, Table 8, G-block (OligoCF-5/20) 10%): > 16 µg/mL
